In the experiment the target is T1, WT LRRK2 (Homo sapiens, UniProt Q5S007).
T1 construct: endogenous in cells; host or cells: HEK293 (endogenous LRRK2 gene knock-in tagged with HiBit; stably expressing CMV-driven firefly luciferase)
Put plainly: LRRK2 HiBit degradation assay (Nano-Glo Dual Luciferase) in HEK293 cells with HiBit-tagged endogenous LRRK2. It is filed as cell-based. In outline:
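HEK293 cells carrying endogenous C-terminally HiBit-tagged LRRK2 and stably expressing CMV-driven firefly luciferase were treated for 24 h at 37° C with an 11-point 1:3 series from a 1 μM final top concentration. Nano-Glo Dual Luciferase read LRRK2-HiBit against firefly signal. Alamar Blue gave viability, and signals were normalized to DMSO median before curve fitting.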
A general note: HiBiT is a short tag that completes a luciferase, so light tracks the accessible tagged protein.

[1] abbreviates: HEK293, Table 2, maximal degradation, HiBit-tagged LRRK2 in HEK293 cells, 24 hours treatment.
Setting [2] is: Table 2, HiBit-tagged LRRK2 in HEK293 cells, 24 hours treatment, starting concentration 1 μM.
Setting [3] is: HEK293, Table 3, comparison with direct comparators, maximal degradation.
The mark [4] stands for this setting: Table 3, comparison with direct comparators, HiBit-tagged LRRK2 in HEK293 cells, 24 hours treatment.

Each structure is given as a SMILES string.

T1 sequence (Q5S007 whole entry): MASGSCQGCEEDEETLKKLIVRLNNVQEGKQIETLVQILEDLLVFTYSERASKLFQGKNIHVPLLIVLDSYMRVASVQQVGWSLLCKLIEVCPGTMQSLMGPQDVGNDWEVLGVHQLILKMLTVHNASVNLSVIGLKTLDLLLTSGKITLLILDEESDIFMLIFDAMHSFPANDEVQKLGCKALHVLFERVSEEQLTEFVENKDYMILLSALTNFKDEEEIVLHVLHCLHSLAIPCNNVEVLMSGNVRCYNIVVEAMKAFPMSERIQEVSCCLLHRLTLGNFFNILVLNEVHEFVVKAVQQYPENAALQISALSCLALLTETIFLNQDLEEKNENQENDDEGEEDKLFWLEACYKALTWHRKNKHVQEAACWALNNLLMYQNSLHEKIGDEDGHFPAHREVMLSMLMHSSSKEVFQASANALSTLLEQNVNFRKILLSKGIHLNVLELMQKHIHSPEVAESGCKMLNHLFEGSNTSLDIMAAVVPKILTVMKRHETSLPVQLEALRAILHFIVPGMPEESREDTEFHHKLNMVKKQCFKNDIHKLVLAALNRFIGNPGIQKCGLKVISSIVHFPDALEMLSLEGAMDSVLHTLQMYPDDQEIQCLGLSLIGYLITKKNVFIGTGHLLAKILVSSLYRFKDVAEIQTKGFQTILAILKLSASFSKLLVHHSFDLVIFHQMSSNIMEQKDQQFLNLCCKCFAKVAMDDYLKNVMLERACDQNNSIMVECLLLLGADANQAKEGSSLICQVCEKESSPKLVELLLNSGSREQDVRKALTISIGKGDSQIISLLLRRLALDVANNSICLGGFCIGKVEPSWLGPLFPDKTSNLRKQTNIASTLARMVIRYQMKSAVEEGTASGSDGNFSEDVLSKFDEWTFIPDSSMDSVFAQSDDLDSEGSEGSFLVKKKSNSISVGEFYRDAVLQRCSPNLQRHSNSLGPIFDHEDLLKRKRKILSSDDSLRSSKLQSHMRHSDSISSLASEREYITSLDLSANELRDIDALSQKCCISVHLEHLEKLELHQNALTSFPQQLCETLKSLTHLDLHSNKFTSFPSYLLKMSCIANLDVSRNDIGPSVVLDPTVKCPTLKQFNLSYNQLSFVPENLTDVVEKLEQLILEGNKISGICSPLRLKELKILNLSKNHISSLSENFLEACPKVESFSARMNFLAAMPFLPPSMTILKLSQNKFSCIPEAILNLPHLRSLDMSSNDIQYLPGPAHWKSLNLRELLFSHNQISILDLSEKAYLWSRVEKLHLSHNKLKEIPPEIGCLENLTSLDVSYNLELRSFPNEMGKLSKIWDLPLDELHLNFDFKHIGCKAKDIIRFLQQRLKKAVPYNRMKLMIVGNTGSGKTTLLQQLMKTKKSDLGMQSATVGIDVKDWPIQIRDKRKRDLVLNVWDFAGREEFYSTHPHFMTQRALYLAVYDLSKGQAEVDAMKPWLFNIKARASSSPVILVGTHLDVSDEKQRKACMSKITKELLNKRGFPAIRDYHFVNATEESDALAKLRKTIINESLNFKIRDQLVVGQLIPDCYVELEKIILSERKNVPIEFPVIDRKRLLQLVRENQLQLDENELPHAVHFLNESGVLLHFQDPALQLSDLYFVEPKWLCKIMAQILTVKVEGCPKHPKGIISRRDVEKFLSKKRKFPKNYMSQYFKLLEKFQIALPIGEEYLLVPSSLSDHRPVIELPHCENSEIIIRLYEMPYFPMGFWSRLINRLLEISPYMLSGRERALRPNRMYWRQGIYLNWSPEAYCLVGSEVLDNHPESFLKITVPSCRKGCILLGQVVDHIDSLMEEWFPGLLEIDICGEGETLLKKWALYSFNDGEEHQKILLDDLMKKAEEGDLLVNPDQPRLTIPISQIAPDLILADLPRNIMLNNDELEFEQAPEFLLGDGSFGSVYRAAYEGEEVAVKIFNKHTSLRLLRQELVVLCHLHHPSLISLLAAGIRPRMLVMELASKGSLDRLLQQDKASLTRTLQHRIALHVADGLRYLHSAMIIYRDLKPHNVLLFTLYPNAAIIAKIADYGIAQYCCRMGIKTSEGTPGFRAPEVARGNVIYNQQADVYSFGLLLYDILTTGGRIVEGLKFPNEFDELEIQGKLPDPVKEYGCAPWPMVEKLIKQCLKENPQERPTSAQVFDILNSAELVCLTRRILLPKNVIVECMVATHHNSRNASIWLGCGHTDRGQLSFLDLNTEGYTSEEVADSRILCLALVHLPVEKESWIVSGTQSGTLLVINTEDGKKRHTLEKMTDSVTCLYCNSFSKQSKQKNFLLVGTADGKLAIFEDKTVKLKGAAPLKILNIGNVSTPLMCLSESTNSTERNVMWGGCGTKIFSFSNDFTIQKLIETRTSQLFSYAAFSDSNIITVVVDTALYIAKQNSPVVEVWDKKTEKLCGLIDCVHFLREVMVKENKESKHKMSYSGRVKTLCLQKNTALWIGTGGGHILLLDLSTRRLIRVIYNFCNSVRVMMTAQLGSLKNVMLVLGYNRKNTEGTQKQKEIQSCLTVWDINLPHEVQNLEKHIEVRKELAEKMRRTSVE

For `CCOc1ccc2[nH]nc(-c3cc(N4CCN(C[C@H]5CC[C@H](OC6CCN(c7ccc8c(c7)n(C)c(=O)n8C7CCC(=O)NC7=O)CC6)CC5)CC4)ncn3)c2c1` (single isomer, unassigned) [Compound 61, rel-3-[3-methyl-2-oxo-5-(4-{[(1r,4r)-4-({4-[6-(5-ethoxy-1H-indazol-3-yl)pyrimidin-4-yl]piperazin-1-yl}methyl)cyclohexyl]oxy}piperidin-1-yl)-2,3-dihydro-1H-1,3-benzodiazol-1-yl]piperidine-2,6-dione], the Dmax (usually the largest share of the target that was removed) under setting [1] came to 48%. The DC50 (as a rule, the concentration giving 50% degradation) under setting [2] turned out to be 0.51 nM.

Under setting [1], `CC(C)n1c(=O)n(C2CCC(=O)NC2=O)c2ccc(N3CCC(CN4CCN(CC5CCN(c6cc(-c7n[nH]c8cnc(OC9(C)CC9)cc78)ncn6)CC5)C(C)(C)C4)CC3)cc21` (centres unmarked) [Compound 51, 3-{5-[4-({3,3-dimethyl-4-[(1-{6-[5-(1-methylcyclopropoxy)-1H-pyrazolo[3,4-c]pyridin-3-yl]pyrimidin-4-yl}piperidin-4-yl)methyl]piperazin-1-yl}methyl)piperidin-1-yl]-2-oxo-3-(propan-2-yl)-2,3-dihydro-1H-1,3-benzodiazol-1-yl}piperidine-2,6-dione] showed a Dmax of 64%. The DC50 under setting [2] is 1.1 nM.

The molecule `COc1c(N2CCC(CN3CCN(CC4CCN(c5cc(-c6n[nH]c7ccc(OC8(C)CC8)cc67)ncn5)CC4)C(C)(C)C3)CC2)ccc2c1CN(C1CCC(=O)NC1=O)C2=O` (centres unmarked) [Comparative Example 5, reference compound] displayed a Dmax under setting [3] of 65%. In addition, under setting [4], the 50% degradation concentration (DC50) came to 1.6 nM.

The molecule `Cn1c(=O)n(C2CCC(=O)NC2=O)c2ccc(N3CCC(O[C@H]4CC[C@H](CN5CCN(c6cc(-c7n[nH]c8ccc([C@@]9(C#N)CC9%10CC%10)cc78)ncn6)CC5)CC4)CC3)cc21` (single isomer, unassigned) [Compound 65, (1R**)-1-{3-[6-(4-{[(1r*,4r*)-4-({1-[1-(2,6-dioxopiperidin-3-yl)-3-methyl-2-oxo-2,3-dihydro-1H-1,3-benzodiazol-5-yl]piperidin-4-yl}oxy)cyclohexyl]methyl}piperazin-1-yl)pyrimidin-4-yl]-1H-indazol-5-yl}spiro[2.2]pentane-1-carbonitrile] returned a Dmax under setting [1] of 64%. The same molecule gave a DC50 under setting [2] of 0.13 nM.

With `CC1(Oc2ccc3[nH]nc(-c4cc(N5CCC(CN6CCN(CC7CCN(c8cccc9c8ncn9C8CCC(=O)NC8=O)CC7)CC6(C)C)CC5)ncn4)c3c2)CC1` (centres unmarked) [Compound 69, 3-{4-[4-({3,3-dimethyl-4-[(1-{6-[5-(1-methylcyclopropoxy)-1H-indazol-3-yl]pyrimidin-4-yl}piperidin-4-yl)methyl]piperazin-1-yl}methyl)piperidin-1-yl]-1H-1,3-benzodiazol-1-yl}piperidine-2,6-dione], the Dmax under setting [1] amounted to 50% and the Dmax under setting [3] stood at 50%. Besides, half-maximal degradation under setting [2] (DC50) was put at 5 nM and it took 5 nM to reach half-maximal degradation under setting [4] (DC50).

`Cn1c(=O)n(C2CCC(=O)NC2=O)c2ccc(N3CCC(OC4CCC(CN5CCN(c6cc(-c7n[nH]c8ccc(OC(C)(C)C)cc78)ncn6)CC5)CC4)CC3)cc21` (stereo not drawn) [Compound 54, rel-3-[3-methyl-2-oxo-5-(4-{[(1r,4r)-4-[(4-{6-[5-(tert-butoxy)-1H-indazol-3-yl]pyrimidin-4-yl}piperazin-1-yl)methyl]cyclohexyl]oxy}piperidin-1-yl)-2,3-dihydro-1H-1,3-benzodiazol-1-yl]piperidine-2,6-dione]: the half-maximal degradation concentration (DC50) under setting [2] is 0.33 nM. In addition, for the setting “Table 2, maximal degradation, HiBit-tagged LRRK2 in HEK293 cells, 24 hours treatment”, the “WT LRRK2 **Dmax (%)” value is 53%.

Take `Cn1c(=O)n(C2CCC(=O)NC2=O)c2cccc(N3CCC(O[C@H]4CC[C@H](CN5CCN(c6cc(-c7n[nH]c8ccc(OC9(C)CC9)cc78)ncn6)CC5)CC4)CC3)c21` (some centres unmarked) [Compound 9, 3-[3-methyl-2-oxo-4-(4-{[(1r,4r)-4-[(4-{6-[5-(1-methylcyclopropoxy)-1H-indazol-3-yl]pyrimidin-4-yl}piperazin-1-yl)methyl]cyclohexyl]oxy}piperidin-1-yl)-2,3-dihydro-1H-1,3-benzodiazol-1-yl]piperidine-2,6-dione]: the Dmax by setting is: under setting [1], 66%; under setting [3], 66%. The DC50 is 1.2 nM under setting [2] and 1.2 nM under setting [4].

`Cn1c(=O)n(C2CCC(=O)NC2=O)c2cc(N3CCC(CN4CCN(CC5CCN(c6cc(-c7n[nH]c8ccc(OC9(C)CC9)cc78)ncn6)CC5)CC4)CC3)ccc21` (centres unmarked) [Compound 16, 3-{3-methyl-6-[4-({4-[(1-{6-[5-(1-methylcyclopropoxy)-1H-indazol-3-yl]pyrimidin-4-yl}piperidin-4-yl)methyl]piperazin-1-yl}methyl)piperidin-1-yl]-2-oxo-2,3-dihydro-1H-1,3-benzodiazol-1-yl}piperidine-2,6-dione] showed a DC50 under setting [2] of no less than 1000 nM.

For `CC(C)n1c(=O)n(C2CCC(=O)NC2=O)c2ccc(N3CCC(O[C@H]4CC[C@H](CN5CCN(c6cc(-c7n[nH]c8cnc(OC(C)(C)C)cc78)ncn6)CC5)CC4)CC3)cc21` (single isomer, unassigned) [Compound 58, rel-3-[2-oxo-3-(propan-2-yl)-5-(4-{[(1r,4r)-4-[(4-{6-[5-(tert-butoxy)-1H-pyrazolo[3,4-c]pyridin-3-yl]pyrimidin-4-yl}piperazin-1-yl)methyl]cyclohexyl]oxy}piperidin-1-yl)-2,3-dihydro-1H-1,3-benzodiazol-1-yl]piperidine-2,6-dione], the greatest degradation seen (Dmax) under setting [1] amounted to 70%. This molecule gave a DC50 under setting [2] of 33 nM.

On to `Cn1c(=O)n(C2CCC(=O)NC2=O)c2ccc(N3CCC(CN4CCN(CC5CCN(c6cc(-c7n[nH]c8ccc(OC9(C)CC9)cc78)ncn6)CC5)CC4)CC3)cc21` (centres unmarked) [Compound 12, 3-{3-methyl-5-[4-({4-[(1-{6-[5-(1-methylcyclopropoxy)-1H-indazol-3-yl]pyrimidin-4-yl}piperidin-4-yl)methyl]piperazin-1-yl}methyl)piperidin-1-yl]-2-oxo-2,3-dihydro-1H-1,3-benzodiazol-1-yl}piperidine-2,6-dione], for which the Dmax is 64% under setting [1] and 64% under setting [3]. Further, the DC50 runs as follows: under setting [2], 0.17 nM; under setting [4], 0.17 nM.

`COc1c(N2CCC(O[C@H]3CC[C@H](CN4CCN(c5cc(-c6n[nH]c7cnc(OC8(C)CC8)cc67)ncn5)CC4)CC3)CC2)ccc2c1CN(C1CCC(=O)NC1=O)C2=O` (some centres unmarked) [Comparative Example 1, reference compound] displayed a Dmax under setting [3] of 52%. Also, the DC50 under setting [4] is 5.6 nM.

As to `CC(C)Oc1cc2c(-c3cc(N4CCN(C[C@H]5CC[C@H](OC6CCN(c7ccc8c(c7)n(C(C)C)c(=O)n8C7CCC(=O)NC7=O)CC6)CC5)CC4)ncn3)n[nH]c2cn1` (single isomer, unassigned) [Compound 59, rel-3-[2-oxo-3-(propan-2-yl)-5-(4-{[(1r,4r)-4-[(4-{6-[5-(propan-2-yloxy)-1H-pyrazolo[3,4-c]pyridin-3-yl]pyrimidin-4-yl}piperazin-1-yl)methyl]cyclohexyl]oxy}piperidin-1-yl)-2,3-dihydro-1H-1,3-benzodiazol-1-yl]piperidine-2,6-dione], the Dmax under setting [1] turned out to be 41%. This molecule registered a DC50 under setting [2] of 0.74 nM.

On to `CC(C)n1c(=O)n(C2CCC(=O)NC2=O)c2ccc(N3CCC(O[C@H]4CC[C@H](CN5CCN(c6cc(-c7n[nH]c8ccc(OC9(C)CC9)cc78)ncn6)CC5)CC4)CC3)cc21` (single isomer, unassigned) [Compound 49, rel-3-[2-oxo-3-(propan-2-yl)-5-(4-{[(1r,4r)-4-[(4-{6-[5-(1-methylcyclopropoxy)-1H-indazol-3-yl]pyrimidin-4-yl}piperazin-1-yl)methyl]cyclohexyl]oxy}piperidin-1-yl)-2,3-dihydro-1H-1,3-benzodiazol-1-yl]piperidine-2,6-dione], for which, under setting [1], the Dmax stood at 55%. Also, under setting [2], it took 0.44 nM to reach half-maximal degradation (DC50).

The molecule `COc1c(N2CCC(CN3CCN(CC4CCN(c5cc(-c6n[nH]c7cnc(OC8(C)CC8)cc67)ncn5)CC4)C(C)(C)C3)CC2)ccc2c1CN(C1CCC(=O)NC1=O)C2=O` (centres unmarked) [Comparative Example 6, reference compound] registered a Dmax under setting [3] of 68%. The same molecule returned a DC50 under setting [4] of 1.7 nM.

`CC(C)Oc1cc2c(-c3cc(N4CCN(C[C@H]5CC[C@H](OC6CCN(c7ccc8c(c7)n(C)c(=O)n8C7CCC(=O)NC7=O)CC6)CC5)CC4)ncn3)n[nH]c2cn1` (single isomer, unassigned) [Compound 20, rel-3-[3-methyl-2-oxo-5-(4-{[(1r,4r)-4-[(4-{6-[5-(propan-2-yloxy)-1H-pyrazolo[3,4-c]pyridin-3-yl]pyrimidin-4-yl}piperazin-1-yl)methyl]cyclohexyl]oxy}piperidin-1-yl)-2,3-dihydro-1H-1,3-benzodiazol-1-yl]piperidine-2,6-dione] displayed a Dmax under setting [1] of 40%. The same molecule yielded a DC50 under setting [2] of 0.56 nM.

On to `Cc1nc2cc(N3CCC(O[C@H]4CC[C@H](CN5CCN(c6cc(-c7n[nH]c8ccc(OC9(C)CC9)cc78)ncn6)CC5)CC4)CC3)ccc2n1C1CCC(=O)NC1=O` (stereo partly drawn) [Compound 42, rel-3-[2-methyl-5-(4-{[(1r,4r)-4-[(4-{6-[5-(1-methylcyclopropoxy)-1H-indazol-3-yl]pyrimidin-4-yl}piperazin-1-yl)methyl]cyclohexyl]oxy}piperidin-1-yl)-1H-1,3-benzodiazol-1-yl]piperidine-2,6-dione], for which the maximal degradation (Dmax) under setting [1] was found to be 42% and the Dmax under setting [3] worked out at 52%. The molecule also had a 50% degradation concentration (DC50) under setting [2] of 5.2 nM and a DC50 under setting [4] of 5.2 nM.

`COc1c(N2CCC(CN3CCN(CC4CCN(c5cc(-c6n[nH]c7ccc(OC8(C)CC8)cc67)ncn5)CC4)CC3)CC2)ccc2c1CN(C1CCC(=O)NC1=O)C2=O` (centres unmarked) [Comparative Example 4, reference compound] showed a Dmax under setting [3] of 80%. The same molecule came in with a DC50 under setting [4] of 0.79 nM.

Values taken from patent US12589156B2, “Benzimidazole and benzimidazolone based protac compounds for the targeted degradation of leucine rich repeat kinase 2 (LRRK2)” (Arvinas Operations, Inc., priority 2023, dated 2026).
